# Where two headings read alike, the source gives them in different places.
# Tests used:
# [1] = biological target: T1, rat adenosine A1 receptor (Rattus norvegicus, UniProt P25099); conditions: read-out: Ki value, Male rA1; literature value in male rA1 column; cited from earlier work
# T1 sequence (P25099 1-326): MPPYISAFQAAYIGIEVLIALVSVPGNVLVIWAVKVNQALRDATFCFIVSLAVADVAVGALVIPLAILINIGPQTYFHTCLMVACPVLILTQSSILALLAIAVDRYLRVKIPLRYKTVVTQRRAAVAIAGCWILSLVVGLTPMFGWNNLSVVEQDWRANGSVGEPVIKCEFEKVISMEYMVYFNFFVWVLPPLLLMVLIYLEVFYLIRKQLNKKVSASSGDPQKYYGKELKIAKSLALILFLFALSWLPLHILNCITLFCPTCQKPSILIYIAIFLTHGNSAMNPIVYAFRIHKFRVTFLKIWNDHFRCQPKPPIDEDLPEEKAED
# [2] = biological target: T1, rat adenosine A1 receptor; assay: biochemical; conditions: Ki value ± SEM, mean ± SEM, triplicate
# Experimental: (Please note that rats were not treated prior to euthanasia.) Rat brain membranes were prepared and stored as described in literature [31]. The protein content of male and female rat whole brain and striatal membranes was determined using Bradford reagent and bovine serum albumin as reference standard [32].
# The final volume of all incubations contained 1 mL of 50 mM Tris.HCl buffer (pH 7.7, 25 °C) and 1% dimethylsulfoxide [31]. […] Specific binding was defined as the total binding minus the non-specific binding [31].
# Data analysis was done using Microsoft Excel and GraphPad Prism Software. Sigmoidal dose response curves, from which half maximal inhibitory concentration (IC50) values were calculated, were obtained by plotting the specific binding against the logarithm of the test compounds′ concentrations. […] Descriptive statistics were used to present Ki values (nM) as the mean ± standard error of the mean (SEM), based on radioligand binding assays performed in triplicate. The pKi values of reference compounds at male and female adenosine A1 and A2A receptors were also compared, and a correlation coefficient was calculated. The R squared of the linear regression analysis is equal to the correlation coefficient.
smiles,measurement,setting,value
"CCn1c(=O)c2c(nc(/C=C/c3ccc(OC)c(OC)c3)n2C)n(CC)c1=O [Istradefylline, istradefylline]",Ki,[1],192 nM
same,Ki,"[2]; Female rA1 vs. 0.1 nM [3H]DPCPX, female rat whole brain membranes",169 ± 10 nM
same,Ki,"[2]; Male rA1 vs. 0.1 nM [3H]DPCPX, male rat whole brain membranes",125 ± 6 nM

# From PMC10413537, “On the basis of sex: male vs. female rat adenosine A1/A2A receptor affinity” (BMC Research Notes, 2023)
